Reference: patent publication US20210052473A1, “COMPOSITION FOR REMOVING ALDEHYDE-BASED ODORS AND REACTIVE OXYGEN SPECIES” (Osteon Co. Ltd., priority 2019, published 2021)

Experiment: Deodorization performance: anisidine value (p-AV) by ultraviolet spectrometry after reaction with 0.2% 2-nonenal isooctane standard solution
Conditions: 20 ml 0.2% 2-nonenal isooctane solution (v/v) stirred 30 minutes with 20 ml composition; lower value = less aldehyde; Table 5
Experimental: At this time, 0.2% 2-nonenal isooctane solution (v/v) was used as a standard solution to determine the deodorizing performance. 2-Nonenal is a typical aldehyde compound generated by the oxidation of unsaturated fatty acids in human skin. […] The deodorizing performance of the deodorizing substances was determined by measuring the anisidine values (p-AV).

In the case of `O=S([O-])O.[Na+]` [Comparative Example 1, Sodium bisulfite], the “Anisidine value (p-AV)” value is reported as 33.28.

In the case of `O=S([O-])O.[K+]` [Comparative Example 2, Potassium bisulfite], the “Anisidine value (p-AV)” value is reported as 33.23.

With `O=S([O-])O.[Li+]` [Comparative Example 3, Lithium bisulfite] the “Anisidine value (p-AV)” value was 34.65.

For `O=S([O-])S(=O)(=O)[O-].[Na+].[Na+]` [Comparative Example 4, Sodium metabisulfite], the “Anisidine value (p-AV)” value was 34.48.

In the case of `O=S([O-])S(=O)(=O)[O-].[K+].[K+]` [Comparative Example 5, Potassium metabisulfite], the “Anisidine value (p-AV)” value is reported as 33.10.

With `O=S([O-])S(=O)(=O)[O-].[Na+].[Na+]` [Comparative Example 6, Sodium metabisulfite] the “Anisidine value (p-AV)” value was 35.36.

With `O=S([O-])S(=O)(=O)[O-].[Li+].[Li+]` [Comparative Example 7, Lithium metabisulfite] the “Anisidine value (p-AV)” value was 34.27.

With `O=S([O-])S(=O)[O-].[Na+].[Na+]` [Comparative Example 8, Sodium hydrosulfite] the “Anisidine value (p-AV)” value was 34.39.

In the case of `O=S([O-])S(=O)[O-].[K+].[K+]` [Comparative Example 9, Potassium hydrosulfite], the “Anisidine value (p-AV)” value is reported as 34.10.

With `O=S([O-])S(=O)[O-].[Li+].[Li+]` [Comparative Example 10, Lithium hydrosulfite] the “Anisidine value (p-AV)” value was 33.98.

In the case of `Nc1ccnc(=O)[nH]1` [Comparative Example 13, Cytosine], the “Anisidine value (p-AV)” value is reported as 37.21.

In the case of `Cc1c[nH]c(=O)[nH]c1=O` [Comparative Example 14, Thymine], the “Anisidine value (p-AV)” value is reported as 36.54.

With `Nc1ncnc2nc[nH]c12` [Comparative Example 15, Adenine] the “Anisidine value (p-AV)” value was 36.23.

With `Nc1nc2nc[nH]c2c(=O)[nH]1` [Comparative Example 16, Guanine] the “Anisidine value (p-AV)” value was 38.45.

For `NCCCC[C@H](N)C(=O)O` [Comparative Example 17, Lysine], the “Anisidine value (p-AV)” value was 34.56.

For `N=C(N)NCCC[C@H](N)C(=O)O` [Comparative Example 18, Arginine], the “Anisidine value (p-AV)” value was 38.41.

With `N[C@@H](Cc1c[nH]cn1)C(=O)O` [Comparative Example 19, Histidine] the “Anisidine value (p-AV)” value was 38.09.
